The text below walks through data of paper PMC9596378, “Discovery and molecular basis of subtype-selective cyclophilin inhibitors” (Nature Chemical Biology, 2022).

Molecules are shown by their SMILES.

Holding throughout (experiment): Anisotropy (fluorescence polarization) binding assay
(In fluorescence polarisation assays a small probe gives low polarisation when free and higher when bound to something large.)

The target of one experiment is CypD (Homo sapiens, UniProt P30405). Also on record: PPIF (UniProtKB Entry P30405: residues 45–207); made in house; host or cells: E. coli BL21(DE3). The note with it: 0.5 nM fluorescein-labeled macrocycle. The procedure: (§1) Final assay volume was 100 µL with 0.25% DMSO. Fluorescence anisotropy was then measured using a Tecan Spark plate reader using 492 nm/523 nm excitation/emission settings.
Sequence of CypD (P30405 45-207): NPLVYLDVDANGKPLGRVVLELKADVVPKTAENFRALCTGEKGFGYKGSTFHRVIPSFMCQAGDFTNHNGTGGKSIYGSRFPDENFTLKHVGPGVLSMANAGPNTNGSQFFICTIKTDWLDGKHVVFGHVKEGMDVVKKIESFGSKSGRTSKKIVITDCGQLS

For another experiment, the target named is T1, CypC (Homo sapiens, UniProt P45877).
T1 construct: PPIC (UniProtKB Entry P45877: residues 24–212); host or cells: E. coli BL21(DE3)
T1 sequence (P45877 24-212): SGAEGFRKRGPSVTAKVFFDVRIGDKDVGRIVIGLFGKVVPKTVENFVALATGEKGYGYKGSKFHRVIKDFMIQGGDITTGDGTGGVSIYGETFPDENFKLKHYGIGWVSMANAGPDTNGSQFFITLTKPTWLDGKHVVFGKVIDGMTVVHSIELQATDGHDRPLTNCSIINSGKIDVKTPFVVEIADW
The conditions noted are these: 0.5 nM fluorescein-labeled macrocycle. The procedure: as §1

A further experiment concerns the target T2, PPIL1 (Homo sapiens, UniProt Q9Y3C6).
T2 construct: PPIL1 (UniProtKB Entry Q9Y3C6: residues 1–166); made in house; host or cells: E. coli BL21(DE3)
T2 sequence (Q9Y3C6 1-166): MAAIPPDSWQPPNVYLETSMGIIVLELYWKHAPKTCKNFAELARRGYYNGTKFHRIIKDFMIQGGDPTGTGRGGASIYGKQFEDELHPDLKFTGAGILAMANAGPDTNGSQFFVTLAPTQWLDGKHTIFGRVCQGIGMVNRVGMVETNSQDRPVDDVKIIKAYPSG
The note with it: 0.5 nM fluorescein-labeled macrocycle. The procedure: as §1

Another experiment concerns the target T3, SDCCAG-10(GST) (Homo sapiens, UniProt Q6UX04).
T3 construct: GST; purchased Abnova
The conditions noted are these: 0.5 nM fluorescein-labeled macrocycle. Here is the method:
as §1

In another experiment the target is T4, NKTR (Homo sapiens, UniProt P30414).
T4 construct: NKTR (UniProtKB Entry P30414: residues 7–179); host or cells: E. coli BL21(DE3)
T4 sequence (P30414 7-179): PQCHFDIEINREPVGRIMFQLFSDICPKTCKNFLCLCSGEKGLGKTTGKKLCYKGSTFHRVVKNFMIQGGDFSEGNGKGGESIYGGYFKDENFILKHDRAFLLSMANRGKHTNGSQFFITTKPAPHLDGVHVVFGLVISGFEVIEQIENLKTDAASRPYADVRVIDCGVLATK
The conditions noted are these: 0.5 nM fluorescein-labeled macrocycle. The procedure:
as §1

For another experiment, the target named is T5, PPWD1 (Homo sapiens, UniProt Q96BP3).
T5 construct: PPWD1 (UniProtKB Entry Q96BP3: residues 473–646); host or cells: E. coli BL21(DE3)
T5 sequence (Q96BP3 473-646): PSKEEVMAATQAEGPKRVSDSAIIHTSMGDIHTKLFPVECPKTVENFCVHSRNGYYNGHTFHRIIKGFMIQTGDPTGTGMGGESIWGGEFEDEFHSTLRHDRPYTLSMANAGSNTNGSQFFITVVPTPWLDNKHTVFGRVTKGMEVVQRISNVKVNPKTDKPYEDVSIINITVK
The conditions noted are these: 0.5 nM fluorescein-labeled macrocycle. The procedure: as §1

Another experiment concerns the target T6, CypB (Homo sapiens, UniProt P23284).
T6 construct: PPIB (UniProtKB Entry P23284: residues 34–216); His6 with TEV site (2BT vector leader) (N); made in house; host or cells: E. coli BL21(DE3)
The note with it: 0.5 nM fluorescein-labeled macrocycle. Here is the method:
as §1

The next experiment has as its target T7, CypE (Homo sapiens, UniProt Q9UNP9).
T7 construct: PPIE (UniProtKB Entry Q9UNP9: residues 131–301); host or cells: E. coli BL21(DE3)
The conditions noted are these: 0.5 nM fluorescein-labeled macrocycle. Here is the method: as §1

In the next experiment the target is T8, CypH (Homo sapiens, UniProt O43447).
T8 construct: PPIH (UniProtKB Entry O43447: residues 1–177); His6 with TEV site (2BT vector leader) (N); made in house; host or cells: E. coli BL21(DE3)
T8 sequence (O43447 whole entry, the tested form may be a part): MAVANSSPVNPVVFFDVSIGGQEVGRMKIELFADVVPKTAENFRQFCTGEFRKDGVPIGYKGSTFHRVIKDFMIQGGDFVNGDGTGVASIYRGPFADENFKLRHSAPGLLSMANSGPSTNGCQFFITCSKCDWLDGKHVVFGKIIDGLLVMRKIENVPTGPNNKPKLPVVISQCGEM
The note with it: 0.5 nM fluorescein-labeled macrocycle. Here is the method:
as §1

For the next experiment, the target named is T9, CypA (Homo sapiens, UniProt P62937).
T9 construct: PPIA (UniProtKB Entry P62937: residues 1–165); made in house; host or cells: E. coli BL21(DE3)
T9 sequence (P62937 whole entry, the tested form may be a part): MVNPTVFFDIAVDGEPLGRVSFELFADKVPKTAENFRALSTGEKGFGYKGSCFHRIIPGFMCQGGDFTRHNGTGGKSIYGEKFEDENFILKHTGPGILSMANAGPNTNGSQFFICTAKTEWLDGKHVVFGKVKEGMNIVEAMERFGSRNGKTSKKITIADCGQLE
The note with it: 0.5 nM fluorescein-labeled macrocycle. The procedure: as §1

Another experiment has as its target T10, CypE K212A (Homo sapiens, UniProt Q9UNP9, K212A).
T10 construct: Lane 4- GS-CypE K212A (131-301);; His6 tag with thrombin site (pET28a LIC); GS remnant stays on the N-terminus (N, cleaved yes); host or cells: E. coli BL21(DE3)
The note with it: 0.5 nM A26-Fl. The procedure: as §1

For another experiment, the target named is T11, CypE K217A (Homo sapiens, UniProt Q9UNP9, K217A).
T11 construct: Lane 5- GS-CypE K217A (131-301);; His6 tag with thrombin site (pET28a LIC); GS remnant stays on the N-terminus (N, cleaved yes); host or cells: E. coli BL21(DE3)
T11 sequence (Q9UNP9 131-301 K217A): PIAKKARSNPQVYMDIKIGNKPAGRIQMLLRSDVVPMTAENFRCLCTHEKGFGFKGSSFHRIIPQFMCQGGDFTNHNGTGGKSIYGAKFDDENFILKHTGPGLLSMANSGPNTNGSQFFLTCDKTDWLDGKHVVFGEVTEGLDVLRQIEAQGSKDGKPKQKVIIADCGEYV
The conditions noted are these: 0.5 nM A26-Fl. The procedure: as §1

For another experiment, the target named is T12, PPIL4(Full Length) (Homo sapiens, UniProt Q8WUA2).
T12 construct: PPIL4 (full length); purchased Millipore-Sigma
T12 sequence (Q8WUA2 whole entry): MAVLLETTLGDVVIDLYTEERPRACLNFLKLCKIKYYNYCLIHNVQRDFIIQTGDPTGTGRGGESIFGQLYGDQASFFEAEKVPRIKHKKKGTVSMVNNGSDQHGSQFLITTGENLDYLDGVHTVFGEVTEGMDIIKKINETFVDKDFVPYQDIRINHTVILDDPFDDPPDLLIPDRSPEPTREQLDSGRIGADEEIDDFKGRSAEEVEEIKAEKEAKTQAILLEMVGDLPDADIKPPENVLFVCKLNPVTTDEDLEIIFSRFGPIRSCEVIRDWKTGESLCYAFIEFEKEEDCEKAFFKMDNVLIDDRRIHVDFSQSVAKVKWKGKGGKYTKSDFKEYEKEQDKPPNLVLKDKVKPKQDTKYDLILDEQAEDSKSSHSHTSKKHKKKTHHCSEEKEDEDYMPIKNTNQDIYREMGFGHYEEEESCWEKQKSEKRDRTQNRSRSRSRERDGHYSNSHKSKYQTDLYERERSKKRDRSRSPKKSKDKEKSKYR
The note with it: 0.5 nM fluorescein-labeled macrocycle. The procedure: as §1

Another experiment deals with T13, PPIL3 (Homo sapiens, UniProt Q9H2H8).
T13 construct: PPIL3 (UniProtKB Entry Q9H2H8: residues 1–161); His6 tag with TEV site (2BT vector); SNA remnant stays on the N-terminus (N, cleaved yes); made in house; host or cells: E. coli BL21(DE3)
T13 sequence (Q9H2H8 whole entry, the tested form may be a part): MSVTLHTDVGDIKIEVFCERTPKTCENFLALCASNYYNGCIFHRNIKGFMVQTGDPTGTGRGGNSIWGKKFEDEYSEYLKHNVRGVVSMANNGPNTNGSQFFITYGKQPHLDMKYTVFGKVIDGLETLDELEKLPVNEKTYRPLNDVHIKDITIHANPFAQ
The conditions noted are these: 0.5 nM fluorescein-labeled macrocycle. The procedure: as §1

Another experiment deals with T14, CypG (Homo sapiens, UniProt Q13427).
T14 construct: PPIG (UniProtKB Entry Q13427: residues 1–179); His6 with thrombin site (pET28a LIC leader) (N); host or cells: E. coli BL21(DE3)
T14 sequence (Q13427 1-179): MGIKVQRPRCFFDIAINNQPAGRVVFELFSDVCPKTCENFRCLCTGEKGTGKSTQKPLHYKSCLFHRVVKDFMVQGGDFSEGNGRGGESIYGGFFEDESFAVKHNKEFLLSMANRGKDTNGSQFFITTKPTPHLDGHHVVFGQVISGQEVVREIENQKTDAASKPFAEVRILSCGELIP
The note with it: 0.5 nM fluorescein-labeled macrocycle. The procedure:
as §1

A further experiment concerns the target T15, PPIL2 (Homo sapiens, UniProt Q13356).
T15 construct: PPIL2 (UniProtKB Entry Q13356: residues 280–457); His6 tag with thrombin site (pET28a LIC); GS remnant after cleavage (N, cleaved yes); host or cells: E. coli BL21(DE3)
The note with it: 0.5 nM fluorescein-labeled macrocycle. Here is the method: as §1

A further experiment concerns the target T16, PPIL6(C-Myc/DDK) (Homo sapiens, UniProt Q8IXY8).
T16 construct: Myc; DDK (FLAG); purchased Millipore-Sigma
The conditions noted are these: 0.5 nM fluorescein-labeled macrocycle. Here is the method: as §1

The next experiment addresses T17, CypE K218A (Homo sapiens, UniProt Q9UNP9, K218A).
T17 construct: Lane 6- GS-CypE K218A (131-301);; His6 tag with thrombin site (pET28a LIC); GS remnant stays on the N-terminus (N, cleaved yes); host or cells: E. coli BL21(DE3)
The note with it: 0.5 nM A26-Fl. The procedure: as §1

Another experiment concerns the target Cyp40 (Homo sapiens, UniProt Q08752). The arrangement: PPID (UniProtKB Entry Q08752: residues 1–183); made in house; host or cells: E. coli BL21(DE3). The note with it: 0.5 nM fluorescein-labeled macrocycle. Here is the method: as §1

T7 sequence (Q9UNP9 131-301): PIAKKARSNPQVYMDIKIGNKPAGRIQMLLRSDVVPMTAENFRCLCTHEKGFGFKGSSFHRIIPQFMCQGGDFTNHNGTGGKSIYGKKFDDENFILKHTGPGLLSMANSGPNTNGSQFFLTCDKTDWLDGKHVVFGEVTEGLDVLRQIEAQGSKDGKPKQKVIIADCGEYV
T3 sequence (Q6UX04 whole entry): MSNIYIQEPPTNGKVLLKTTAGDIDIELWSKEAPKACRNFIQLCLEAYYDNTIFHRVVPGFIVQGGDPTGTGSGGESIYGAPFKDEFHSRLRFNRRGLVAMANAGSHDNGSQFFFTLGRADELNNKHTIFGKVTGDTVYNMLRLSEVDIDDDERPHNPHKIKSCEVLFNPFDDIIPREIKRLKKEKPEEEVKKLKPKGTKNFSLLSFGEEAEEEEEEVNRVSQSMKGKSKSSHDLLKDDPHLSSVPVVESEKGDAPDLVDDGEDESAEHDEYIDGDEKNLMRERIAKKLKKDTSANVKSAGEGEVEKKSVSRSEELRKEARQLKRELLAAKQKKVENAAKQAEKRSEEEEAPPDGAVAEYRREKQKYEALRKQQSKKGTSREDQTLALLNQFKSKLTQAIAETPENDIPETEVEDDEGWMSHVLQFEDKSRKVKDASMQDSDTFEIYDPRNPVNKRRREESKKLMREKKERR
T16 sequence (Q8IXY8 whole entry): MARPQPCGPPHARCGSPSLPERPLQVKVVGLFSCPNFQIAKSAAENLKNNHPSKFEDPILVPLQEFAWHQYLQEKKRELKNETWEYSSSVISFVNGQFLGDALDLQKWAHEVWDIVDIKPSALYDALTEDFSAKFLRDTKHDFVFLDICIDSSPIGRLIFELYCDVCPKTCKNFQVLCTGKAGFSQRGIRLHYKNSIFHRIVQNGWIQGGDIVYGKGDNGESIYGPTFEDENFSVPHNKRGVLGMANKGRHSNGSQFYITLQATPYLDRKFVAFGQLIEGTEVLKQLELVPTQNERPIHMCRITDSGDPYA
T17 sequence (Q9UNP9 131-301 K218A): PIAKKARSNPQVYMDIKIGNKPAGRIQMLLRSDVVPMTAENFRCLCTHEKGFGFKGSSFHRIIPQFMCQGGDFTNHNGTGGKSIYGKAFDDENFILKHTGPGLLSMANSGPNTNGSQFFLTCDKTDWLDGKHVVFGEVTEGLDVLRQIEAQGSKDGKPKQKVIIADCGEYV
T10 sequence (Q9UNP9 131-301 K212A): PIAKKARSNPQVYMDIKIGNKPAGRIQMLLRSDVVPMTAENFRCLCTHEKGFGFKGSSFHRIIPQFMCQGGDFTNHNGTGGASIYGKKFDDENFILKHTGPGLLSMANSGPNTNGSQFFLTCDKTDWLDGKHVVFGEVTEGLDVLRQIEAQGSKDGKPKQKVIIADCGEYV
Sequence of Cyp40 (Q08752 1-183): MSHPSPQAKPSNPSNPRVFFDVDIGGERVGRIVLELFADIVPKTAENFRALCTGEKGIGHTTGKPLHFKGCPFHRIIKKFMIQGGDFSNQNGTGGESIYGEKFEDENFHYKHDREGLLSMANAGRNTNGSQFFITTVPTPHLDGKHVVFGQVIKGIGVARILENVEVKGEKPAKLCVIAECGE
T6 sequence (P23284 34-216): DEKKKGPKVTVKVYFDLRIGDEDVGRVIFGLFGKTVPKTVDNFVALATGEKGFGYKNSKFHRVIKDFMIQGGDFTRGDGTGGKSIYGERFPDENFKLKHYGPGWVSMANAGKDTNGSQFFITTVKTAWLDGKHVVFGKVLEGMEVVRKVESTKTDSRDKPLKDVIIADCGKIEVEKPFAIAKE
T15 sequence (Q13356 280-457): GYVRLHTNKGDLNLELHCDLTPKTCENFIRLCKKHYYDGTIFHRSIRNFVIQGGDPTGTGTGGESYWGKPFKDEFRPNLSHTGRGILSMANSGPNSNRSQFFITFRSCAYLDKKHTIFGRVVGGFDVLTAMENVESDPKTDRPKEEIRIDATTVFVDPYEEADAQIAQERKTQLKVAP

By Kd is commonly meant the equilibrium constant for the complex coming apart. Low values mean a tighter complex, high ones a looser complex. For the compound `O=C1/C=C/C(=O)N2CCC[C@](Cc3ccccc3)(C2)C(=O)N[C@@H](Cc2ccco2)C(=O)NCc2ccccc2CC(=O)N[C@H](C(=O)NCCCOCCOCCOCCCNC(=O)c2ccc3c(c2)C(=O)OC32c3ccc(O)cc3Oc3cc(O)ccc32)CCN1` [Compound A26-Fl], the Kd was 17 ± 2 nM at CypD; 150 ± 30 nM on CypC; 230 ± 40 nM on PPIL1; greater than 1000 nM at SDCCAG-10(GST); 1500 ± 400 nM at NKTR; 1100 ± 600 nM on PPWD1. Further, the Kd came to 34 ± 5 nM on CypB; 100 ± 30 nM at CypE; 600 ± 100 nM at CypH; 51 ± 0.7 nM on CypA; 130 ± 30 nM at CypE K212A; 70 ± 10 nM on CypE K217A. The Kd was greater than 1000 nM on PPIL4(Full Length); 1700 ± 600 nM on PPIL3; 170 ± 10 nM at CypG; greater than 10000 nM at PPIL2; greater than 1000 nM at PPIL6(C-Myc/DDK); 70 ± 20 nM on CypE K218A. On Cyp40, the affinity, expressed as Kd, was 170 ± 20 nM.
